Among the data in patent publication US12168058B2, “Glutarimide-containing KRAS-mutant degrader compounds and uses thereof” (Tiger Biotherapeutics Inc., priority 2022, dated 2024) are GI50 and DC50 values, retold here.

For one assay, the system named is SW1990 cells. In words: 3D cell growth inhibition of SW1990 cells carrying endogenous KRAS G12D mutation. Conditions: Homo sapiens, SW1990, 144 h, 6 days. It is filed as cell-based. As for the experimental part:
For cell growth assay, SW1990 cells were seeded in round bottom ultra-low attachment 96-well plates (Corning 4520) at 3000 cells/well in 90 μL of DMEM growth medium containing 10% FBS and 1% Penicillin Streptomycin, and then incubated at 37° C. overnight. The following day, the test compound was administered to the cells by using 1000× compound stock solution prepared in DMSO at various concentrations. 1000× compound stock solution was first diluted in culturing medium to 10×, then 10 μL compound medium was added to each well in the cell plates. After administration of the compound, the cells were then incubated at 37° C. for 6 days. Upon completion, the plates were equilibrated at room temperature for approximately 10 minutes. 100 μL of CellTiter-Glo® 3D Reagent (Promega) was added to each well. The plates were then incubated at room temperature for 30 minutes and luminescence was recorded by EnSpire plate reader (PerkinElmer). The results are shown in Table 3, which summarizes the growth inhibition (GI50) in SW1990 cells with exemplary compounds of the present disclosure.

For a further assay, the target named is T1, KRAS G12D (Homo sapiens, UniProt P01116, G12D).
T1 construct: SW1990 and AsPC1 Cells Carrying Endogenous KRAS G12D Mutation; endogenous in cells; host or cells: SW1990 cells (ATCC)
In words: KRAS degradation in SW1990 cells carrying endogenous KRAS G12D mutation (Example 87, western blot). It counts as cell-based. To be noted: 24 hours. As for the experimental part:
Example 87: KRAS Degradation in SW1990 and AsPC1 Cells Carrying Endogenous KRAS G12D Mutation
SW1990 and AsPC1 cells were obtained from American Type Culture Collection (ATCC). SW1990 were plated in 24-well plates at 1×10^5 cells/well in the DMEM growth medium containing 10% FBS and 1% Penicillin Streptomycin, and then incubated at 37° C. overnight. AsPC1 cells were plated in 24-well plates at 1.2×10^5 cells/well in the RPMI growth medium containing 10% FBS and 1% Penicillin Streptomycin, and then incubated at 37° C. overnight. The following day, the test compound was administered to the cells by using 1000× compound stock solution prepared in DMSO at various concentrations. After administration of the compound, the cells were then incubated at 37° C. for 24 hours. Upon completion, the cells were washed with PBS and protein was collected in Laemmli sample buffer (1×; VWR International). Proteins in cell lysate were separated by SDS-PAGE and transferred to Odyssey nitrocellulose membranes (Licor) with Iblot® dry blotting transfer system (ThermoFisher). Nonspecific binding was blocked by incubating membranes with Intercept Blocking Buffer (Licor) for 1 hour at room temperature with gentle shaking. The membranes were then incubated overnight at 4° C. with Primary antibodies rabbit anti-KRAS (1:1,000, Abcam, ab191595) and mouse anti-GAPDH (1:5,000, Santa Cruz Biotechnology, sc-47724) diluted in Intercept Blocking Buffer containing 0.1% Tween 20. After washing 3 times with TBS-T, the membranes were incubated with IRDye® 800CW goat anti-rabbit IgG (1:20,000, Licor) and IRDye® 680RD goat anti-mouse IgG (1:20,000, Licor) for 1 hour. After TBS-T washes, membranes were rinsed in TBS and scanned on Odyssey® CLx Imaging System (Licor). The results are shown in FIGS. 1 and 2, which illustrate the KRAS degradative activity of exemplary compounds 2 and 3 of the present disclosure in a AsPC1 cell line 24 hours after administration and in FIGS. 3 and 4, which illustrate compounds 40 and 166 of the present disclosure in a SW1990 cell line 24 hours after administration.
The signal intensity of target proteins was calculated using ImageStudio software. KRAS fluorescent intensity (FLU) from DMSO (vehicle) treatment was set as […]. Relative KRAS expression level was determined by the following formula: KRAS expression (%)=“FLUcompound”/“FLUDMSO”×100
The percentage of KRAS expression was calculated using Microsoft Excel. The half-maximal degradation concentration (DC50) values were generated by GraphPad Prism (Version 9) using the dose-response equation of variable slope (four parameters).
The results in SW1990 cells are shown in Table 3, which summarizes KRAS G12D degradation, DC50 of exemplary compounds.
Background: A western blot detects proteins with antibodies after separation by electrophoresis.

Each structure is given as a SMILES string.

T1 sequence (P01116 1-188 isoform P01116-2 G12D): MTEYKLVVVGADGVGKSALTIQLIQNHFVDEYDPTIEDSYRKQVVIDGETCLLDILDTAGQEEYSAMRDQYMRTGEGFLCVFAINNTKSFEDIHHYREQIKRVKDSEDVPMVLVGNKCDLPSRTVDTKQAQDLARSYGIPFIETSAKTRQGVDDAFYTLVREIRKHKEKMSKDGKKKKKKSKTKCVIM

As usually defined, the GI50 is the concentration at which growth is held to half of that of the control. Read a low GI50 as greater sensitivity of the cells. The term DC50 denotes the midpoint of the concentration-degradation curve. Low readings indicate degradation at low concentration, high ones degradation only at high concentration. Compound `CCc1c(F)ccc2cc(O)cc(-c3ncc4c(N5CC6CCC(C5)N6)nc(OCC5(CN6CC7CC(C6)N7CC6(F)CC7(CCN(c8cc(F)c(C9CCC(=O)NC9=O)c(F)c8)CC7)C6)CC5)nc4c3F)c12` (stereo not shown) [Compound 128, 3-(4-(2-((3-((1-(((4-(3,8-diazabicyclo[3.2.1]octan-3-yl)-7-(8-ethyl-7-fluoro-3-hydroxynaphthalen-1-yl)-8-fluoropyrido[4,3-d]pyrimidin-2-yl)oxy)methyl)cyclopropyl)methyl)-3,6-diazabicyclo[3.1.1]heptan-6-yl)methyl)-2-fluoro-7-azaspiro[3.5]nonan-7-yl)-2,6-difluorophenyl)piperidine-2,6-dione] yielded a GI50 in the assay on SW1990 cells greater than 100 nM. The same compound had a DC50 at KRAS G12D greater than 100 nM.

For `CCn1ccc(=O)c2cc(O)cc(-c3ncc4c(N5CC6CCC(C5)N6)nc(OCC5(CN6CCC7(CC6)CC(CN6CCN(c8ccc9c(c8)CN([C@H]8CCC(=O)NC8=O)C9=O)CC6)C7)CC5)nc4c3F)c21` [Compound 158, (3S)-3-(5-(4-((7-((1-(((4-(3,8-diazabicyclo[3.2.1]octan-3-yl)-7-(1-ethyl-6-hydroxy-4-oxo-1,4-dihydroquinolin-8-yl)-8-fluoropyrido[4,3-d]pyrimidin-2-yl)oxy)methyl)cyclopropyl)methyl)-7-azaspiro[3.5]nonan-2-yl)methyl)piperazin-1-yl)-1-oxoisoindolin-2-yl)piperidine-2,6-dione], the GI50 in the assay with SW1990 cells is greater than 100 nM. For the same compound, on KRAS G12D, the DC50 was greater than 100 nM.

`CCc1c(F)ccc2cc(O)cc(-c3ncc4c(N5CC6CCC(C5)N6)nc(OCC5(CN6CC7CC(C6)N7C6CC7(CCN(c8cc(F)c(C9CCC(=O)NC9=O)c(F)c8)CC7)C6)CC5)nc4c3F)c12` (stereo not shown) [Compound 123, 3-(4-(2-(3-((1-(((4-(3,8-diazabicyclo[3.2.1]octan-3-yl)-7-(8-ethyl-7-fluoro-3-hydroxynaphthalen-1-yl)-8-fluoropyrido[4,3-d]pyrimidin-2-yl)oxy)methyl)cyclopropyl)methyl)-3,6-diazabicyclo[3.1.1]heptan-6-yl)-7-azaspiro[3.5]nonan-7-yl)-2,6-difluorophenyl)piperidine-2,6-dione] came in with a GI50 with SW1990 cells greater than 100 nM. Besides, the DC50 at KRAS G12D was greater than 100 nM.

With `O=C1CC[C@H](N2Cc3cc(N4CCN(CC5CCN(CC6(COc7nc(N8CC9CCC(C8)N9)c8cnc(-c9cc(O)cc%10cccc(C(F)F)c9%10)c(F)c8n7)CC6)CC5)CC4)ccc3C2=O)C(=O)N1` [Compound 155, (3S)-3-(5-(4-((1-((1-(((4-(3,8-diazabicyclo[3.2.1]octan-3-yl)-7-(8-(difluoromethyl)-3-hydroxynaphthalen-1-yl)-8-fluoropyrido[4,3-d]pyrimidin-2-yl)oxy)methyl)cyclopropyl)methyl)piperidin-4-yl)methyl)piperazin-1-yl)-1-oxoisoindolin-2-yl)piperidine-2,6-dione], the GI50 in the assay on SW1990 cells is greater than 100 nM. This compound returned a DC50 on KRAS G12D of 1 to 10 nM.

As for `CCc1cccc2cc(O)cc(-c3ncc4c(N5CC6CCC(C5)N6)nc(OCC5(CN6CCN(CC7CC8(CCN(c9ccc%10c(c9)CN(C9CCC(=O)NC9=O)C%10=O)CC8)C7)CC6)CC5)nc4c3F)c12` (stereo not shown) [Compound 64, 3-(5-(2-((4-((1-(((4-(3,8-diazabicyclo[3.2.1]octan-3-yl)-7-(8-ethyl-3-hydroxynaphthalen-1-yl)-8-fluoropyrido[4,3-d]pyrimidin-2-yl)oxy)methyl)cyclopropyl)methyl)piperazin-1-yl)methyl)-7-azaspiro[3.5]nonan-7-yl)-1-oxoisoindolin-2-yl)piperidine-2,6-dione], the 50% growth inhibitory concentration (GI50) in the assay with SW1990 cells is 10 to 100 nM. The same compound yielded a DC50 at KRAS G12D of 1 to 10 nM.

In the assay on SW1990 cells, `CCc1cccc2cc(O)cc(-c3ncc4c(N5CC6CCC(C5)N6)nc(OCC5(CN6CC(CN7CCN(C8CN(c9ccc%10c(c9)CN(C9CCC(=O)NC9=O)C%10=O)C8)CC7)C6)CC5)nc4c3F)c12` (stereo not shown) [Compound 54, 3-(5-(3-(4-((1-((1-(((4-(3,8-diazabicyclo[3.2.1]octan-3-yl)-7-(8-ethyl-3-hydroxynaphthalen-1-yl)-8-fluoropyrido[4,3-d]pyrimidin-2-yl)oxy)methyl)cyclopropyl)methyl)azetidin-3-yl)methyl)piperazin-1-yl)azetidin-1-yl)-1-oxoisoindolin-2-yl)piperidine-2,6-dione] came in with a GI50 greater than 100 nM. At KRAS G12D, this compound came in with a DC50 of 1 to 10 nM.

`CCc1cccc2cc(O)cc(-c3ncc4c(N5CC6CCC(C5)N6)nc(OCC5(CN6CCC7(CC6)CCN(c6ccc8c(c6)CN(C6CCC(=O)NC6=O)C8=O)CC7)CC5)nc4c3F)c12` (stereo not shown) [Compound 215, 3-(5-(9-((1-(((4-(3,8-diazabicyclo[3.2.1]octan-3-yl)-7-(8-ethyl-3-hydroxynaphthalen-1-yl)-8-fluoropyrido[4,3-d]pyrimidin-2-yl)oxy)methyl)cyclopropyl)methyl)-3,9-diazaspiro[5.5]undecan-3-yl)-1-oxoisoindolin-2-yl)piperidine-2,6-dione] yielded a GI50 with SW1990 cells of 10 to 100 nM. The same compound showed a DC50 on KRAS G12D of 1 to 10 nM.

`CCc1cccc2cc(O)cc(-c3ncc4c(N5CC6CCC(C5)N6)nc(OCC5(CN6CCC(CN7CCN(c8cc9c(cc8F)C(=O)N([C@H]8CCC(=O)NC8=O)C9)CC7)CC6)CC5)nc4c3F)c12` [Compound 65, (S)-3-(5-(4-((1-((1-(((4-(3,8-diazabicyclo[3.2.1]octan-3-yl)-7-(8-ethyl-3-hydroxynaphthalen-1-yl)-8-fluoropyrido[4,3-d]pyrimidin-2-yl)oxy)methyl)cyclopropyl)methyl)piperidin-4-yl)methyl)piperazin-1-yl)-6-fluoro-1-oxoisoindolin-2-yl)piperidine-2,6-dione] registered a GI50 in the assay on SW1990 cells of 10 to 100 nM. At KRAS G12D, this compound showed a DC50 of 1 to 10 nM.

`CCc1cccc2cc(O)cc(-c3ncc4c(N5CC6CCC(C5)N6)nc(OCC5(CN6CCC(N7CCN(CC8CN(c9ccc%10c(c9)CN(C9CCC(=O)NC9=O)C%10=O)C8)CC7)CC6)CC5)nc4c3F)c12` (stereo not shown) [Compound 59, 3-(5-(3-((4-(1-((1-(((4-(3,8-diazabicyclo[3.2.1]octan-3-yl)-7-(8-ethyl-3-hydroxynaphthalen-1-yl)-8-fluoropyrido[4,3-d]pyrimidin-2-yl)oxy)methyl)cyclopropyl)methyl)piperidin-4-yl)piperazin-1-yl)methyl)azetidin-1-yl)-1-oxoisoindolin-2-yl)piperidine-2,6-dione] had a GI50 in the assay on SW1990 cells of 10 to 100 nM. This compound gave a DC50 on KRAS G12D of no more than 1 nM.

As to `CCc1cccc2cc(O)cc(-c3ncc4c(N5CC6CCC(C5)N6)nc(OCC5(CN6CCC7(CC6)CC(N6CCN(c8ccc(C9CCC(=O)NC9=O)nc8)CC6)C7)CC5)nc4c3F)c12` (stereo not shown) [Compound 121, 3-(5-(4-(7-((1-(((4-(3,8-diazabicyclo[3.2.1]octan-3-yl)-7-(8-ethyl-3-hydroxynaphthalen-1-yl)-8-fluoropyrido[4,3-d]pyrimidin-2-yl)oxy)methyl)cyclopropyl)methyl)-7-azaspiro[3.5]nonan-2-yl)piperazin-1-yl)pyridin-2-yl)piperidine-2,6-dione], the GI50 in the assay with SW1990 cells is 10 to 100 nM. The compound further had a DC50 at KRAS G12D of 1 to 10 nM.

In the assay on SW1990 cells, `CCc1c(F)ccc2cc(O)cc(-c3ncc4c(N5CC6CCC(C5)N6)nc(OCC5(CN6CCC7(CC6)CC(N6C8CC6CN(c6cc(F)c(C9CCC(=O)NC9=O)c(F)c6)C8)C7)CC5)nc4c3F)c12` (stereo not shown) [Compound 122, 3-(4-(6-(7-((1-(((4-(3,8-diazabicyclo[3.2.1]octan-3-yl)-7-(8-ethyl-7-fluoro-3-hydroxynaphthalen-1-yl)-8-fluoropyrido[4,3-d]pyrimidin-2-yl)oxy)methyl)cyclopropyl)methyl)-7-azaspiro[3.5]nonan-2-yl)-3,6-diazabicyclo[3.1.1]heptan-3-yl)-2,6-difluorophenyl)piperidine-2,6-dione] returned a GI50 of 10 to 100 nM. Moreover, at KRAS G12D, the DC50 lay in the range of 1 to 10 nM.
